From ChEMBL document CHEMBL1201862, “PubChem BioAssay data set” (2004)
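These data come from cells grown in 96-well plates and exposed to compound for 48 hours at five concentrations. Abbreviation: GI50, concentration required for 50% inhibition of growth.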 Active and inactive are the calls of the source. Rule as the data show it: active = GI50 up to about 1.1 µM and inactive = higher.

Key:
Assay in all cases: DTP human tumour cell line panel, 48 h
SN12C = system: SN12C
SK-MEL-28 = system: SK-MEL-28
SNB-75 = system: SNB-75
NCI-H226 = system: NCI-H226
OVCAR-4 = system: OVCAR-4
K562 = system: K562
UO-31 = system: UO-31
HT-29 = system: HT-29
UACC-257 = system: UACC-257
MDA-MB-435 = system: MDA-MB-435
IGROV-1 = system: IGROV-1
DU-145 = system: DU-145
786-0 = system: 786-0
EKVX = system: EKVX
RPMI-8226 = system: RPMI-8226
A498 = system: A498
TK-10 = system: TK-10
SR = system: SR
SF-539 = system: SF-539
NCI-H460 = system: NCI-H460

Measured: GI50

CC(C)N/C(=N\C#N)NS(=O)(=O)c1cnccc1NC1CCCCCCC1
inactive: SN12C > 100 µM | SK-MEL-28 > 100 µM | SNB-75 > 100 µM | NCI-H226 > 100 µM | OVCAR-4 > 100 µM | K562 > 100 µM | UO-31 > 100 µM | HT-29 > 100 µM | UACC-257 > 100 µM | MDA-MB-435 > 100 µM | IGROV-1 > 100 µM | DU-145 > 100 µM | 786-0 > 100 µM | EKVX > 100 µM | RPMI-8226 39.8 µM | A498 > 100 µM | TK-10 > 100 µM | SR > 100 µM

O=C1CCc2cc(Br)ccc2O1
inactive: SN12C 92.9 µM | SK-MEL-28 > 100 µM | SNB-75 30.4 µM | NCI-H226 > 100 µM | OVCAR-4 > 100 µM | K562 > 100 µM | HT-29 > 100 µM | UACC-257 > 100 µM | SF-539 32.9 µM | MDA-MB-435 > 100 µM | IGROV-1 67.3 µM | DU-145 > 100 µM | 786-0 29.2 µM | EKVX 3.81 µM | RPMI-8226 > 100 µM | NCI-H460 > 100 µM | A498 37.8 µM | TK-10 45.7 µM | SR 83 µM

C=CCOc1ccc2c(C)cc(=O)oc2c1C
inactive: SN12C 98.4 µM | SK-MEL-28 > 100 µM | SNB-75 52.6 µM | NCI-H226 > 100 µM | OVCAR-4 96.4 µM | K562 52.5 µM | UO-31 29.5 µM | HT-29 59.2 µM | UACC-257 > 100 µM | SF-539 41.2 µM | MDA-MB-435 44.2 µM | IGROV-1 63 µM | DU-145 > 100 µM | 786-0 84.9 µM | EKVX 27.4 µM | RPMI-8226 35.5 µM | NCI-H460 53.8 µM | A498 31.5 µM | SR 37.8 µM

Nc1nc(-c2ccccc2)c(-c2ccccc2)c(-c2nc(N)nc(-c3ccccc3)c2-c2ccccc2)n1
inactive: SN12C > 100 µM | SK-MEL-28 > 100 µM | SNB-75 88.7 µM | NCI-H226 > 100 µM | OVCAR-4 91 µM | K562 > 100 µM | UO-31 > 100 µM | HT-29 62.1 µM | UACC-257 > 100 µM | SF-539 > 100 µM | MDA-MB-435 > 100 µM | IGROV-1 > 100 µM | DU-145 > 100 µM | 786-0 > 100 µM | EKVX 63.7 µM | NCI-H460 74.3 µM | A498 75.5 µM | TK-10 > 100 µM | SR > 100 µM

CC(C)(C)c1cc(C2=NNC(c3ccccc3)C2)cc(C(C)(C)C)c1O (stereo unspecified)
inactive: SN12C 16.6 µM | SK-MEL-28 15.9 µM | SNB-75 10.3 µM | NCI-H226 17.2 µM | OVCAR-4 14.2 µM | UO-31 15 µM | HT-29 17.7 µM | UACC-257 14.3 µM | SF-539 19.8 µM | MDA-MB-435 12.8 µM | IGROV-1 15.7 µM | DU-145 15.5 µM | 786-0 14.3 µM | EKVX 16.1 µM | RPMI-8226 15 µM | NCI-H460 15.4 µM | A498 15.3 µM | TK-10 15.9 µM | SR 5.58 µM

COC(=O)NN(C(=O)OC)c1c(-c2ccccc2)nc(SC)n1N
inactive: SN12C > 100 µM | SK-MEL-28 > 100 µM | SNB-75 > 100 µM | NCI-H226 > 100 µM | OVCAR-4 > 100 µM | K562 > 100 µM | UO-31 > 100 µM | UACC-257 > 100 µM | SF-539 > 100 µM | MDA-MB-435 > 100 µM | IGROV-1 > 100 µM | DU-145 > 100 µM | 786-0 > 100 µM | EKVX > 100 µM | RPMI-8226 > 100 µM | NCI-H460 > 100 µM | A498 > 100 µM | TK-10 > 100 µM | SR > 100 µM

O=C1Nc2ccccc2S/C1=C\c1ccccc1C(F)(F)F
inactive: SN12C > 100 µM | SK-MEL-28 > 100 µM | SNB-75 34.4 µM | NCI-H226 > 100 µM | OVCAR-4 18.8 µM | UO-31 > 100 µM | HT-29 > 100 µM | UACC-257 > 100 µM | SF-539 72.8 µM | MDA-MB-435 > 100 µM | IGROV-1 29 µM | DU-145 > 100 µM | 786-0 44.1 µM | EKVX > 100 µM | RPMI-8226 64.1 µM | NCI-H460 94.6 µM | A498 > 10 µM | TK-10 40.6 µM | SR > 100 µM

Cc1sc2nc3n(c(=O)c2c1C)N=C(c1ccc(Cl)cc1)CS3
inactive: SN12C > 100 µM | SK-MEL-28 > 100 µM | SNB-75 48.2 µM | NCI-H226 > 100 µM | OVCAR-4 > 100 µM | K562 > 100 µM | UO-31 > 100 µM | HT-29 > 100 µM | UACC-257 > 100 µM | SF-539 > 100 µM | MDA-MB-435 > 100 µM | DU-145 > 100 µM | 786-0 > 100 µM | EKVX > 100 µM | RPMI-8226 > 100 µM | NCI-H460 > 100 µM | A498 > 100 µM | SR > 100 µM

COC(=O)C1(C(=O)OC)N=C(C)OC1/C=C/c1ccccc1 (stereo unspecified)
inactive: SN12C > 100 µM | SK-MEL-28 > 100 µM | SNB-75 > 100 µM | NCI-H226 > 100 µM | OVCAR-4 > 100 µM | K562 > 100 µM | UO-31 > 100 µM | UACC-257 > 100 µM | MDA-MB-435 > 100 µM | IGROV-1 > 100 µM | DU-145 > 100 µM | 786-0 > 100 µM | EKVX > 100 µM | RPMI-8226 38 µM | NCI-H460 > 100 µM | A498 > 100 µM | TK-10 > 100 µM | SR > 100 µM

Cc1nn(-c2ccccc2)c2c1C(c1cc3ccccc3nc1Cl)NC(=S)N2 (stereo unspecified)
inactive: SN12C 78.3 µM | SNB-75 82.2 µM | NCI-H226 > 100 µM | OVCAR-4 65.3 µM | K562 39.5 µM | UO-31 20.8 µM | HT-29 44.9 µM | UACC-257 > 100 µM | SF-539 24.8 µM | MDA-MB-435 29 µM | IGROV-1 12 µM | DU-145 > 100 µM | 786-0 33 µM | EKVX 92.7 µM | RPMI-8226 20.7 µM | NCI-H460 > 100 µM | A498 71 µM | TK-10 58.5 µM | SR 44.6 µM

O=C1NN=C(c2ccc(Cl)cc2)CC1C1C(=O)N(c2ccccc2)N=C1c1ccccc1 (stereo unspecified)
inactive: SN12C 34.4 µM | SK-MEL-28 36.7 µM | SNB-75 23.2 µM | NCI-H226 31.8 µM | OVCAR-4 26.4 µM | K562 30 µM | UO-31 21.5 µM | HT-29 32.9 µM | SF-539 25.9 µM | MDA-MB-435 31.6 µM | IGROV-1 35.7 µM | DU-145 53.7 µM | 786-0 24.7 µM | EKVX 35 µM | RPMI-8226 37.1 µM | NCI-H460 28.1 µM | A498 26.2 µM | TK-10 35.6 µM | SR 93.1 µM
